The test concerns HCT116. To be noted: 72 h. The method in brief: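 Luminescence was read with CellTiter-Glo in HCT116 cells seeded at 250 per well in 1536-well plates. Signals were scaled between vehicle at 0% and positive control at -100%, then pattern-corrected. IC50 and maximal efficacy were obtained by fitting a four-parameter Hill equation.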

Counter-ions that a name gives are not always drawn. Bounds are passed on as bounds.

As to `COc1c(N2CCNC(C)C2)c(F)cc2c(=O)c(C(=O)O)cn(C3CC3)c12` (centres undefined) [Gatifloxacin], the IC50 cell viability is, setting by setting: (ICRF193 0 nM) above 45.8 µM; (ICRF193 200 nM) above 45.8 µM.
Take `CN1C2=CC(=O)/C(=N\NC(N)=O)C=C2CC1S(=O)(=O)O` (centres undefined) [Carbazochrome sodium sulfonate]: the IC50 cell viability is above 45.8 µM (ICRF193 0 nM) and above 45.8 µM (ICRF193 200 nM).
Regarding `O.O.O=C(O)c1cc(O)c2c(c1)[O][Bi][O]2` [Bismuth(III) gallate basic hydrate], the IC50 cell viability is, setting by setting: (ICRF193 0 nM) above 45.8 µM; (ICRF193 200 nM) above 45.8 µM.
On to `CN(CCOc1ccc(NS(C)(=O)=O)cc1)CCc1ccc(NS(C)(=O)=O)cc1` [Dofetilide], for which the IC50 cell viability runs as follows: (ICRF193 0 nM) above 45.8 µM; (ICRF193 200 nM) above 45.8 µM.
Turning to `CC(=O)[C@H]1CC[C@H]2[C@@H]3CC=C4C[C@@H](O)CC[C@]4(C)[C@H]3CC[C@]12C` [Pregnenolone], the IC50 cell viability was above 45.8 µM (ICRF193 0 nM) and above 45.8 µM (ICRF193 200 nM).
Regarding `CN[C@H](CC(C)C)C(=O)N[C@H]1C(=O)N[C@@H](CC(N)=O)C(=O)N[C@H]2C(=O)N[C@H]3C(=O)N[C@H](C(=O)N[C@H](C(=O)O)c4cc(O)cc(O)c4-c4cc3ccc4O)[C@H](O)c3ccc(c(Cl)c3)Oc3cc2cc(c3O[C@@H]2O[C@H](CO)[C@@H](O)[C@H](O)[C@H]2O[C@H]2C[C@](C)(N)[C@H](O)[C@H](C)O2)Oc2ccc(cc2Cl)[C@H]1O` [Vancomycin hydrochloride], the IC50 cell viability reads like this: (ICRF193 0 nM) above 45.8 µM; (ICRF193 200 nM) above 45.8 µM.
For `CNCc1ccc(-c2[nH]c3cc(F)cc4c3c2CCNC4=O)cc1` [Rucaparib], the IC50 cell viability by setting is: (ICRF193 0 nM) above 45.8 µM; (ICRF193 200 nM) above 45.8 µM.
Take `CCCCCCCC(=O)OCC(COC(=O)CCCCCCC)OC(=O)CCCCCCC` [Tricaprylin]: the IC50 cell viability (ICRF193 0 nM) was above 45.8 µM and the IC50 cell viability (ICRF193 200 nM) is above 45.8 µM.
For `C=CC[N+]1([C@H]2C[C@H]3[C@@H]4CC[C@H]5C[C@H](O)[C@@H](N6CCOCC6)C[C@]5(C)[C@H]4CC[C@]3(C)[C@H]2OC(C)=O)CCCC1` [Rocuronium bromide], the IC50 cell viability runs as follows: (ICRF193 0 nM) above 45.8 µM; (ICRF193 200 nM) above 45.8 µM.
As to `c1cc(CN2CCCNCCNCCCNCC2)ccc1CN1CCCNCCNCCCNCC1` [Plerixafor hydrochloride], the IC50 cell viability runs as follows: (ICRF193 0 nM) above 45.8 µM; (ICRF193 200 nM) above 45.8 µM.
For `CC(C)C(=O)Nc1ccc([N+](=O)[O-])c(C(F)(F)F)c1` [Flutamide], the IC50 cell viability is, setting by setting: (ICRF193 0 nM) above 45.8 µM; (ICRF193 200 nM) above 45.8 µM.
In the case of `COc1ccc(/C=C/C(=O)Nc2ccccc2C(=O)O)cc1OC` [Tranilast], the IC50 cell viability was above 45.8 µM (ICRF193 0 nM) and above 45.8 µM (ICRF193 200 nM).
On to `CCCCCCCCCCCCCCCCCC(=O)OCC(O)CO` (racemic) [1-Stearoyl-rac-glycerol], for which the IC50 cell viability was above 45.8 µM (ICRF193 0 nM) and above 45.8 µM (ICRF193 200 nM).
Consider `CC(=O)CC(c1ccc([N+](=O)[O-])cc1)c1c(O)c2ccccc2oc1=O` (centres undefined) [Acenocoumarol], for which the IC50 cell viability reads like this: (ICRF193 0 nM) above 45.8 µM; (ICRF193 200 nM) above 45.8 µM.
Turning to `CCC(NC(C)C)C(O)c1ccc(O)c2[nH]c(=O)ccc12` (centres undefined) [Procaterol], the IC50 cell viability by setting is: (ICRF193 0 nM) above 45.8 µM; (ICRF193 200 nM) above 45.8 µM.
Regarding `CO/N=C(\C(=O)N[C@@H]1C(=O)N2C(C(=O)O)=C(CSc3nc(=O)c(O)nn3C)CS[C@H]12)c1csc(N)n1` [Ceftriaxone disodium trihydrate], the IC50 cell viability (ICRF193 0 nM) is above 45.8 µM and the IC50 cell viability (ICRF193 200 nM) was above 45.8 µM.
For `COc1ccc(C(CN(C)C)C2(O)CCCCC2)cc1` (centres undefined) [Venlafaxine], the IC50 cell viability is, setting by setting: (ICRF193 0 nM) above 45.8 µM; (ICRF193 200 nM) above 45.8 µM.
For `O=C1c2cccc3c2[C@H](CCC3)CN1[C@@H]1CN2CCC1CC2` [Palonosetron hydrochloride], the IC50 cell viability was above 45.8 µM (ICRF193 0 nM) and above 45.8 µM (ICRF193 200 nM).
For the compound `O=C(OCC(O)CO)c1ccccc1Nc1ccnc2cc(Cl)ccc12` (centres undefined) [Glafenine hydrochloride], the IC50 cell viability runs as follows: (ICRF193 0 nM) above 45.8 µM; (ICRF193 200 nM) above 45.8 µM.
As for `NC(=O)CCCCC1CCSS1` (stereo not drawn) [alpha-Lipoic acid amide], the IC50 cell viability was above 45.8 µM (ICRF193 0 nM) and above 45.8 µM (ICRF193 200 nM).
`COc1cc2c(cc1OC)C(=O)C(CC1CCN(Cc3ccccc3)CC1)C2` (centres undefined) [Donepezil hydrochloride]: the IC50 cell viability reads like this: (ICRF193 0 nM) above 45.8 µM; (ICRF193 200 nM) above 45.8 µM.
Turning to `COC(=O)C1=C(C#N)NC(C)=C(C(=O)OC(C)C)C1c1cccc([N+](=O)[O-])c1` (centres undefined) [Nilvadipine], the IC50 cell viability by setting is: (ICRF193 0 nM) above 45.8 µM; (ICRF193 200 nM) above 45.8 µM.
With `CC(=O)Nc1nnc(S(N)(=O)=O)s1` [Acetazolamide], the IC50 cell viability runs as follows: (ICRF193 0 nM) above 45.8 µM; (ICRF193 200 nM) above 45.8 µM.
`CC(C)NCC(O)COc1ccc(COCCOC(C)C)cc1` (centres undefined) [Bisoprolol fumarate]: the IC50 cell viability (ICRF193 0 nM) was above 45.8 µM and the IC50 cell viability (ICRF193 200 nM) was above 45.8 µM.
Take `CCCOC(=O)c1ccccc1` [Propyl benzoate]: the IC50 cell viability (ICRF193 0 nM) was above 45.8 µM and the IC50 cell viability (ICRF193 200 nM) is above 45.8 µM.
As to `CCc1cc2c(s1)-n1c(C)nnc1CN=C2c1ccccc1Cl` [Etizolam], the IC50 cell viability (ICRF193 0 nM) was above 45.8 µM and the IC50 cell viability (ICRF193 200 nM) is above 45.8 µM.
With `CC(C)=CCC/C(C)=C/C=C/C(C)=C/C=C/C(C)=C/C=C/C=C(C)/C=C/C=C(C)/C=C/C=C(\C)CCC=C(C)C` [Lycopene], the IC50 cell viability by setting is: (ICRF193 0 nM) above 45.8 µM; (ICRF193 200 nM) above 45.8 µM.
For `CC(C(=O)O)c1ccc(C2CCCCC2)c2ccccc12` (centres undefined) [Quadrisol], the IC50 cell viability is, setting by setting: (ICRF193 0 nM) above 45.8 µM; (ICRF193 200 nM) above 45.8 µM.
Compound `C#CCN(C)[C@H](C)Cc1ccccc1` [Selegiline hydrochloride] displayed an IC50 cell viability (ICRF193 0 nM) above 45.8 µM and an IC50 cell viability (ICRF193 200 nM) above 45.8 µM.
Consider `Cc1cn(-c2cc(NC(=O)c3ccc(C)c(Nc4nccc(-c5cccnc5)n4)c3)cc(C(F)(F)F)c2)cn1` [Nilotinib], for which the IC50 cell viability (ICRF193 0 nM) was above 45.8 µM and the IC50 cell viability (ICRF193 200 nM) was above 45.8 µM.
Consider `Cc1cc(NS(=O)(=O)c2ccc(N)cc2)nc(C)n1` [Sulfisomidine], for which the IC50 cell viability runs as follows: (ICRF193 0 nM) above 45.8 µM; (ICRF193 200 nM) above 45.8 µM.
For the compound `CC(C)(S)[C@H](N)C(=O)O` [L-Penicillamine], the IC50 cell viability is above 45.8 µM (ICRF193 0 nM) and above 45.8 µM (ICRF193 200 nM).
On to `OC[C@H]1O[C@@H](n2cnc3c2N=CNC[C@H]3O)C[C@@H]1O` [Pentostatin], for which the IC50 cell viability (ICRF193 0 nM) was above 45.8 µM and the IC50 cell viability (ICRF193 200 nM) is above 45.8 µM.
For the compound `CNC(C)CC1CCCCC1` (centres undefined) [Propylhexedrine (hydrochloride)], the IC50 cell viability is, setting by setting: (ICRF193 0 nM) above 45.8 µM; (ICRF193 200 nM) above 45.8 µM.
For the compound `CC(=O)O[C@H]1CC[C@@]2(C)C(=CC[C@@H]3[C@@H]2CC[C@]2(C)C(c4cccnc4)=CC[C@@H]32)C1` [Abiraterone acetate], the IC50 cell viability is, setting by setting: (ICRF193 0 nM) above 45.8 µM; (ICRF193 200 nM) above 45.8 µM.
In the case of `CC(=O)[C@@]1(O)CC[C@H]2[C@@H]3CCC4=CC(=O)CC[C@@H]4[C@H]3CC[C@@]21C` [Gestonorone], the IC50 cell viability by setting is: (ICRF193 0 nM) above 45.8 µM; (ICRF193 200 nM) above 45.8 µM.
Regarding `COc1cc2c(cc1OC)C1CC(=O)C(CC(C)C)CN1CC2` (centres undefined) [Tetrabenazine], the IC50 cell viability by setting is: (ICRF193 0 nM) above 45.8 µM; (ICRF193 200 nM) above 45.8 µM.
With `CC1(C)S[C@@H]2[C@H](NC(=O)C(C(=O)O)c3ccccc3)C(=O)N2[C@H]1C(=O)O` (some centres undefined) [Carbenicillin disodium], the IC50 cell viability reads like this: (ICRF193 0 nM) above 45.8 µM; (ICRF193 200 nM) above 45.8 µM.
As to `CN(C)CCOC(c1ccccc1)c1ccc(Br)cc1` (centres undefined) [Bromodiphenhydramine], the IC50 cell viability was above 45.8 µM (ICRF193 0 nM) and above 45.8 µM (ICRF193 200 nM).
Consider `CCN(CC)CCNC(C(=O)OCCC(C)C)c1ccccc1` (centres undefined) [Camylofin], for which the IC50 cell viability reads like this: (ICRF193 0 nM) above 45.8 µM; (ICRF193 200 nM) above 45.8 µM.
With `C=CC1=C(C(=O)O)N2C(=O)[C@@H](NC(=O)/C(=N\O)c3csc(N)n3)[C@H]2SC1` [Cefdinir], the IC50 cell viability is above 45.8 µM (ICRF193 0 nM) and above 45.8 µM (ICRF193 200 nM).
Turning to `CNC(=O)c1cnn(-c2nc(N)c3ncn([C@@H]4O[C@H](CO)[C@@H](O)[C@H]4O)c3n2)c1` [Lexiscan], the IC50 cell viability was above 45.8 µM (ICRF193 0 nM) and above 45.8 µM (ICRF193 200 nM).
As for `C[C@]12C=CC(=O)C=C1CC[C@@H]1[C@@H]2[C@@H](O)C[C@@]2(C)[C@H]1CC[C@]2(O)C(=O)COP(=O)(O)O` [Prednisolone Phosphate (sodium salt)], the IC50 cell viability is above 45.8 µM (ICRF193 0 nM) and above 45.8 µM (ICRF193 200 nM).
In the case of `CC(C)(C)NC(=O)[C@@H]1CN(Cc2cccnc2)CCN1C[C@@H](O)C[C@@H](Cc1ccccc1)C(=O)N[C@H]1c2ccccc2C[C@H]1O` [Indinavir sulfate], the IC50 cell viability was above 45.8 µM (ICRF193 0 nM) and above 45.8 µM (ICRF193 200 nM).
With `C=CCNC(N)=S` [Allylthiourea], the IC50 cell viability was above 45.8 µM (ICRF193 0 nM) and above 45.8 µM (ICRF193 200 nM).
On to `CSCCNc1nc(SCCC(F)(F)F)nc2c1ncn2[C@@H]1O[C@H](COP(=O)(O)OP(=O)(O)C(Cl)(Cl)P(=O)(O)O)[C@@H](O)[C@H]1O`, for which the IC50 cell viability was above 45.8 µM (ICRF193 0 nM) and above 45.8 µM (ICRF193 200 nM).
`Cc1nnc(NS(=O)(=O)c2ccc(N)cc2)s1` [Sulfamethizole]: the IC50 cell viability by setting is: (ICRF193 0 nM) above 45.8 µM; (ICRF193 200 nM) above 45.8 µM.
On to `COc1ccc(C(=O)N2CCCC2=O)cc1` [Aniracetam], for which the IC50 cell viability is, setting by setting: (ICRF193 0 nM) above 45.8 µM; (ICRF193 200 nM) above 45.8 µM.
Turning to `CC(C)(C)CC(C)(C)c1ccc(O)cc1` [4-(1,1,3,3-Tetramethylbutyl)phenol], the IC50 cell viability is, setting by setting: (ICRF193 0 nM) above 45.8 µM; (ICRF193 200 nM) above 45.8 µM.
As for `CCN(CC)CCOCCOC(=O)C1(c2ccccc2)CCCC1` [Carbetapentane], the IC50 cell viability (ICRF193 0 nM) was above 45.8 µM and the IC50 cell viability (ICRF193 200 nM) was above 45.8 µM.
In the case of `CC(=O)N[C@@H](CS)C(=O)O` [Acetylcysteine], the IC50 cell viability by setting is: (ICRF193 0 nM) above 45.8 µM; (ICRF193 200 nM) above 45.8 µM.
`COc1ccc2[nH]cc(CCNC(C)=O)c2c1` [Melatonin] registered an IC50 cell viability (ICRF193 0 nM) above 45.8 µM and an IC50 cell viability (ICRF193 200 nM) above 45.8 µM.

These data come from the supplement of paper PMC12137928.
